“And” between values parts separate entries of the source, which are not always exact repeats. Equal values may be shown once. Toxic doses and inconclusive results are not listed. Cut-off read from the data, not from the text of the source: active = T/C of 150% or more; inactive = T/C below 125%.
Test system: L1210 leukemia ip in BDF1 mice, survival T/C
Assay: NCI In Vivo Anticancer Drug Screen. Data for tumor model L1210 Leukemia (intraperitoneal) in B6D2F1 (BDF1) mice
Details: endpoint: mean survival time, higher = longer survival
Procedure, shortened: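 Ratio derived from survival: compound-dosed mice over vehicle-dosed mice, all bearing a transplantable tumor.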

[1] = dose: 100.0 mg/kg/injection, schedule: Q04DX002 (ip), vehicle: Klucel (hydroxypropylcellulose) (HPC)
[2] = dose: 200.0 mg/kg/injection, schedule: Q04DX002 (ip), vehicle: Klucel (hydroxypropylcellulose) (HPC)
[3] = dose: 400.0 mg/kg/injection, schedule: Q04DX002 (ip), vehicle: Klucel (hydroxypropylcellulose) (HPC)
[4] = dose: 50.0 mg/kg/injection, schedule: Q01DX009 (ip), vehicle: saline
[5] = dose: 100.0 mg/kg/injection, schedule: Q01DX009 (ip), vehicle: saline
[6] = dose: 100.0 mg/kg/injection, schedule: Q04DX003 (ip), vehicle: saline
[7] = dose: 100.0 mg/kg/injection, schedule: Q01DX001 (ip), vehicle: saline
[8] = dose: 200.0 mg/kg/injection, schedule: Q01DX001 (ip), vehicle: saline
[9] = dose: 400.0 mg/kg/injection, schedule: Q01DX001 (ip), vehicle: saline
[10] = dose: 100.0 mg/kg/injection, schedule: Q01DX009 (ip), vehicle: Klucel (hydroxypropylcellulose) (HPC)
[11] = dose: 100.0 mg/kg/injection, schedule: Q04DX003 (ip), vehicle: Klucel (hydroxypropylcellulose) (HPC)
[12] = dose: 200.0 mg/kg/injection, schedule: Q01DX009 (ip), vehicle: Klucel (hydroxypropylcellulose) (HPC)
[13] = dose: 200.0 mg/kg/injection, schedule: Q04DX003 (ip), vehicle: Klucel (hydroxypropylcellulose) (HPC)
[14] = dose: 400.0 mg/kg/injection, schedule: Q04DX003 (ip), vehicle: Klucel (hydroxypropylcellulose) (HPC)

Measured: T/C

COc1ccc(C2OCC(C)([N+](=O)[O-])CO2)cc1 (centres undefined)
inactive: dose: 50.0 mg/kg/injection, schedule: Q01DX001 (ip), vehicle: Klucel (hydroxypropylcellulose) (HPC) 94 % of control | dose: 50.0 mg/kg/injection, schedule: Q04DX002 (ip), vehicle: Klucel (hydroxypropylcellulose) (HPC) 103 % of control | dose: 100.0 mg/kg/injection, schedule: Q01DX001 (ip), vehicle: Klucel (hydroxypropylcellulose) (HPC) 96 % of control | [1] 96 % of control and 102 % of control | dose: 200.0 mg/kg/injection, schedule: Q01DX001 (ip), vehicle: Klucel (hydroxypropylcellulose) (HPC) 98 % of control | [2] 96 % of control and 100 % of control | dose: 400.0 mg/kg/injection, schedule: Q01DX001 (ip), vehicle: Klucel (hydroxypropylcellulose) (HPC) 98 % of control | [3] 99 % of control and 121 % of control

CC1CN1C(=O)c1cc(C(=O)N2CC2C)cc(C(=O)N2CC2C)c1 (centres undefined)
inactive: dose: 15.0 mg/kg/injection, schedule: Q01DX001 (ip), vehicle: saline 102 % of control | dose: 15.0 mg/kg/injection, schedule: Q04DX003 (ip), vehicle: saline 98 % of control | dose: 30.0 mg/kg/injection, schedule: Q01DX001 (ip), vehicle: saline 105 % of control | dose: 30.0 mg/kg/injection, schedule: Q04DX003 (ip), vehicle: saline 98 % of control | dose: 60.0 mg/kg/injection, schedule: Q01DX001 (ip), vehicle: saline 102 % of control | dose: 60.0 mg/kg/injection, schedule: Q04DX003 (ip), vehicle: saline 102 % of control

COC(=O)c1cncn1C(C)c1ccccc1 (centres undefined)
inactive: dose: 25.0 mg/kg/injection, schedule: Q04DX003 (ip), vehicle: saline 97 % of control | [4] 104 % of control | dose: 50.0 mg/kg/injection, schedule: Q04DX003 (ip), vehicle: saline 95 % of control | [5] 109 % of control | [6] 97 % of control and 101 % of control

Cc1cc(O)c2c(c1O)C(=O)c1ccccc1C2=O
inactive: [4] 95 % of control | [5] 95 % of control | [6] 98 % of control | dose: 200.0 mg/kg/injection, schedule: Q01DX009 (ip), vehicle: saline 95 % of control | dose: 200.0 mg/kg/injection, schedule: Q04DX003 (ip), vehicle: saline 96 % of control | dose: 400.0 mg/kg/injection, schedule: Q01DX009 (ip), vehicle: saline 104 % of control | dose: 400.0 mg/kg/injection, schedule: Q04DX003 (ip), vehicle: saline 93 % of control

CCCCC(CC)C(=O)CC(C)=O (centres undefined)
inactive: dose: 50.0 mg/kg/injection, schedule: Q01DX001 (ip), vehicle: saline 103 % of control | [7] 95 % of control | [8] 103 % of control | [9] 97 % of control

CCC(=O)C(c1ccccc1)(c1ccccc1)c1ccccc1
inactive: dose: 100.0 mg/kg/injection, schedule: Q04DX002 (ip), vehicle: other 95 % of control | dose: 200.0 mg/kg/injection, schedule: Q04DX002 (ip), vehicle: other 100 % of control

Cc1ccc(S(=O)(=O)N(c2cc(C)ccc2C)c2ccccc2[N+](=O)[O-])cc1
inactive: dose: 50.0 mg/kg/injection, schedule: Q01DX001 (ip), vehicle: carboxymethylcellulose (CMC) 98 % of control | dose: 100.0 mg/kg/injection, schedule: Q01DX001 (ip), vehicle: carboxymethylcellulose (CMC) 91 % of control | dose: 200.0 mg/kg/injection, schedule: Q01DX001 (ip), vehicle: carboxymethylcellulose (CMC) 96 % of control | dose: 400.0 mg/kg/injection, schedule: Q01DX001 (ip), vehicle: carboxymethylcellulose (CMC) 98 % of control

Cc1ccc(NS(=O)(=O)c2ccccc2)cc1Cl
inactive: [10] 106 % of control | [11] 108 % of control | [12] 109 % of control | [13] 98 % of control | dose: 400.0 mg/kg/injection, schedule: Q01DX009 (ip), vehicle: Klucel (hydroxypropylcellulose) (HPC) 98 % of control | [14] 97 % of control

CCC1(c2ccccc2)C(=O)N(C)C(=O)N(CBr)C1=O (centres undefined)
inactive: dose: 100.0 mg/kg/injection, schedule: Q01DX009 (ip), vehicle: saline with Tween-80 109 % of control | dose: 100.0 mg/kg/injection, schedule: Q04DX002 (ip), vehicle: saline with Tween-80 92 % of control | dose: 200.0 mg/kg/injection, schedule: Q01DX009 (ip), vehicle: saline with Tween-80 106 % of control | dose: 200.0 mg/kg/injection, schedule: Q04DX002 (ip), vehicle: saline with Tween-80 98 % of control | dose: 400.0 mg/kg/injection, schedule: Q04DX002 (ip), vehicle: saline with Tween-80 103 % of control

COc1ccc(C2CCc3cc(OC)c(OC)cc3C2=O)cc1OC (centres undefined)
inactive: dose: 20.0 mg/kg/injection, schedule: Q01DX009 (ip), vehicle: saline with Tween-80 93 % of control | dose: 40.0 mg/kg/injection, schedule: Q01DX009 (ip), vehicle: saline with Tween-80 94 % of control | dose: 80.0 mg/kg/injection, schedule: Q01DX009 (ip), vehicle: saline with Tween-80 90 % of control | dose: 120.0 mg/kg/injection, schedule: Q01DX009 (ip), vehicle: saline with Tween-80 93 % of control | dose: 120.0 mg/kg/injection, schedule: Q01DX009 (ip), vehicle: saline 107 % of control | dose: 240.0 mg/kg/injection, schedule: Q01DX009 (ip), vehicle: saline with Tween-80 96 % of control | dose: 240.0 mg/kg/injection, schedule: Q01DX009 (ip), vehicle: saline 96 % of control | dose: 360.0 mg/kg/injection, schedule: Q01DX009 (ip), vehicle: saline 93 % of control | dose: 545.0 mg/kg/injection, schedule: Q01DX009 (ip), vehicle: saline 91 % of control

NC(=O)C(O)C(O)C(O)C(O)CO (centres undefined)
inactive: dose: 100.0 mg/kg/injection, schedule: Q04DX002 (ip), vehicle: saline 91 % of control and 99 % of control | dose: 200.0 mg/kg/injection, schedule: Q04DX002 (ip), vehicle: saline 95 % of control and 96 % of control | dose: 400.0 mg/kg/injection, schedule: Q04DX002 (ip), vehicle: saline 95 % of control and 105 % of control

Cc1ccccc1NC(=O)Nc1cccc(C)c1C
inactive: [10] 87 % of control | [11] 98 % of control | [12] 95 % of control | [13] 93 % of control | [14] 94 % of control

O=c1[nH]cnc2n[nH]nc12
inactive: dose: 176.0 mg/kg/injection, schedule: Q01DX009 (ip), vehicle: other 113 % of control | dose: 264.0 mg/kg/injection, schedule: Q01DX009 (ip), vehicle: other 117 % of control | dose: 400.0 mg/kg/injection, schedule: Q01DX009 (ip), vehicle: other 124 % of control

CN1NC(=O)CC1c1ccccc1 (centres undefined)
inactive: [1] 93 % of control | [2] 97 % of control | [3] 100 % of control

CC(O)COC(C)C (centres undefined)
inactive: [7] 98 % of control | [8] 89 % of control | [9] 96 % of control

CCO/C=C1\SC(=S)N(c2cccc(OC)c2)C1=O
inactive: dose: 117.0 mg/kg/injection, schedule: Q01DX009 (ip), vehicle: saline with Tween-80 116 % of control | dose: 176.0 mg/kg/injection, schedule: Q01DX009 (ip), vehicle: saline with Tween-80 108 % of control | dose: 264.0 mg/kg/injection, schedule: Q01DX009 (ip), vehicle: saline with Tween-80 121 % of control | dose: 400.0 mg/kg/injection, schedule: Q01DX009 (ip), vehicle: saline with Tween-80 117 % of control

CC1CCC(O)(C(C)(C(=O)O)c2ccccc2)CC1 (centres undefined)
inactive: dose: 55.0 mg/kg/injection, schedule: Q01DX Z (ip), vehicle: methylcellulose (MC) 96 % of control | dose: 83.0 mg/kg/injection, schedule: Q01DX Z (ip), vehicle: methylcellulose (MC) 105 % of control | dose: 125.0 mg/kg/injection, schedule: Q01DX Z (ip), vehicle: methylcellulose (MC) 93 % of control

O=C(c1ccccc1)C(Br)[N+](=O)[O-] (centres undefined)
inactive: [7] 100 % of control | [8] 103 % of control | [9] 96 % of control

NC1C2C3C=CC(C(C(=O)O)C3C(=O)O)C12 (centres undefined)
inactive: [11] 98 % of control | [13] 102 % of control | [14] 101 % of control

COc1c2c(c3ccccc3c1OC(C)=O)OC(C)(C)CC2
inactive: dose: 100.0 mg/kg/injection, schedule: Q01DX001 (ip), vehicle: saline with Tween-80 88 % of control | dose: 200.0 mg/kg/injection, schedule: Q01DX001 (ip), vehicle: saline with Tween-80 92 % of control | dose: 400.0 mg/kg/injection, schedule: Q01DX001 (ip), vehicle: saline with Tween-80 90 % of control

Source: PubChem BioAssay AID248 (DTP/NCI, 2004)
